# Non-standard residues stand in square brackets, D forms with d. Residues, ends and D or L forms follow the SMILES beside them.
# Test system: pituitaries removed from 20 day old female rats
# Assay: In vitro growth hormone release study (incubated rat pituitaries, GH radioimmunoassay)
# Type: cell-based
# Conditions: two pituitaries in 1 ml lactated Ringer's, 36° C., ± SEM
# Procedure: Female rats of the CD-1 strain were housed in a constant temperature room at 24° C. with 14 hours light and 10 hours darkness. The rats were fed Purina brand rat chow ab libitum.
# All studies were started between 0800 and 1000 hours.
# Pituitaries were removed from 20 day old female rats. Two pituitaries were incubated at 36° C. in 1 ml of lactated Ringer's solution in 10 ml polytetrafluoroethylene beakers in a Dubnoff Shaker (90 cycles/min.). The pituitaries were incubated a total of 4 hours (P1, P2, I3, and I4). After two successive one hour preincubation periods (P1, P2), the peptide was added to the incubation medium hourly for 2 hours (I3, I4).
# This in vitro study was performed in triplicate and a standard radioimmunoassay of growth hormone present in the incubation medium was performed in duplicate. The hormonal activity was calculated as the difference (Δ) of growth hormone (GH) levels between I3, I4 and P2, i.e., (I3 -P2) and (I4 -P2). P values were calculated by Students' t test using six growth hormone values for each value recorded.
# The growth hormone radioimmunoassay reagents were distributed by the National Institute of Arthritis and […] (NIAMDD) program. The growth hormone values were calculated in terms of nanograms (ng) of a rat standard with a growth hormone potency of 0.61 units/mg.
compound,measurement,setting,value
CSCC[C@H](NC(=O)[C@H](Cc1ccccc1)NC(=O)[C@@H](Cc1c[nH]c2ccccc12)NC(=O)[C@@H](Cc1c[nH]c2ccccc12)NC(=O)[C@@H](N)Cc1ccc(O)cc1)C(N)=O [H2 N-Tyr-D-Trp-D-Trp-Phe-Met-CONH2] (H-Y[dW][dW]FM-NH2),"In vitro growth hormone release (ΔGH, I3-P2 and I4-P2)","1μg peptide, P <0.001",1697 ± 222 ngΔGH/ml incubation medium
same,"In vitro growth hormone release (ΔGH, I3-P2 and I4-P2)","20μg peptide, P <0.001",1530 ± 208 ngΔGH/ml incubation medium
same,"In vitro growth hormone release (ΔGH, I3-P2 and I4-P2)","100μg peptide, P ~0.02",219 ± 113 ngΔGH/ml incubation medium
